Reference: PubChem BioAssay AID248 (DTP/NCI, 2004)
Inconclusive results and toxic doses are left out. Rule as the data show it: active = T/C of 150% or more; inactive = T/C below 125%.

Tested on: L1210 leukemia ip in BDF1 mice, survival T/C
Assay: NCI In Vivo Anticancer Drug Screen. Data for tumor model L1210 Leukemia (intraperitoneal) in B6D2F1 (BDF1) mice
Conditions: endpoint: mean survival time, higher = longer survival
Outline: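 In this screen, tumor-bearing mice given compound are compared to those given vehicle, and their survival values are reported as a treated-to-control quotient.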

[1] = dose: 100.0 mg/kg/injection, schedule: Q01DX009 (ip), vehicle: Klucel (hydroxypropylcellulose) (HPC)
[2] = dose: 200.0 mg/kg/injection, schedule: Q01DX009 (ip), vehicle: Klucel (hydroxypropylcellulose) (HPC)
[3] = dose: 400.0 mg/kg/injection, schedule: Q01DX009 (ip), vehicle: Klucel (hydroxypropylcellulose) (HPC)

Measured: T/C

CN1CCCN(CCOC(c2ccccc2)c2ccccc2)CC1
inactive: dose: 55.0 mg/kg/injection, schedule: Q01DX Z (ip), vehicle: methylcellulose (MC) 93 % of control | dose: 83.0 mg/kg/injection, schedule: Q01DX Z (ip), vehicle: methylcellulose (MC) 92 % of control

CCN(CC)c1ccc(N)cc1
inactive: dose: 6.25 mg/kg/injection, schedule: Q01DX009 (ip), vehicle: saline with Tween-80 112 % of control | dose: 12.5 mg/kg/injection, schedule: Q01DX009 (ip), vehicle: saline with Tween-80 102 % of control | dose: 12.5 mg/kg/injection, schedule: Q04DX003 (ip), vehicle: saline with Tween-80 100 % of control | dose: 25.0 mg/kg/injection, schedule: Q01DX009 (ip), vehicle: saline with Tween-80 104 % of control | dose: 25.0 mg/kg/injection, schedule: Q04DX003 (ip), vehicle: saline with Tween-80 94 % of control

O=C(c1ccccc1)C1Cc2ccccc2C1=O (stereo not drawn)
inactive: [1] 100 % of control | dose: 100.0 mg/kg/injection, schedule: Q04DX003 (ip), vehicle: saline 102 % of control | [2] 114 % of control | dose: 200.0 mg/kg/injection, schedule: Q04DX003 (ip), vehicle: saline 102 % of control | [3] 97 % of control | dose: 400.0 mg/kg/injection, schedule: Q04DX003 (ip), vehicle: saline 102 % of control

CCCCN(CCCC)CC(O)c1cc(Cl)cc2cccnc12 (stereo not drawn)
inactive: dose: 12.5 mg/kg/injection, schedule: Q01DX009 (ip), vehicle: Klucel (hydroxypropylcellulose) (HPC) 106 % of control | dose: 25.0 mg/kg/injection, schedule: Q01DX009 (ip), vehicle: Klucel (hydroxypropylcellulose) (HPC) 98 % of control | dose: 50.0 mg/kg/injection, schedule: Q01DX009 (ip), vehicle: Klucel (hydroxypropylcellulose) (HPC) 109 % of control

CCC1(CCC#N)CCC(N)=CC1=O (stereo not drawn)
inactive: dose: 100.0 mg/kg/injection, schedule: Q01DX009 (ip), vehicle: saline with Tween-80 97 % of control | dose: 200.0 mg/kg/injection, schedule: Q01DX009 (ip), vehicle: saline with Tween-80 106 % of control | dose: 400.0 mg/kg/injection, schedule: Q01DX009 (ip), vehicle: saline with Tween-80 97 % of control

COc1cc(NC(=O)Nc2cccc(C(C)=O)c2)c(OC)cc1Cl
inactive: [1] 116 % of control | [2] 110 % of control | [3] 110 % of control

OCCSc1ccc2ccccc2c1
inactive: dose: 100.0 mg/kg/injection, schedule: Q04DX002 (ip), vehicle: saline with Tween-80 94 % of control | dose: 200.0 mg/kg/injection, schedule: Q04DX002 (ip), vehicle: saline with Tween-80 90 % of control | dose: 400.0 mg/kg/injection, schedule: Q04DX002 (ip), vehicle: saline with Tween-80 103 % of control

O=C(Nc1ccc2c(c1)Cc1cc([N+](=O)[O-])ccc1-2)C(F)(F)F
inactive: dose: 100.0 mg/kg/injection, schedule: Q04DX003 (ip), vehicle: saline with Tween-80 94 % of control | dose: 200.0 mg/kg/injection, schedule: Q04DX003 (ip), vehicle: saline with Tween-80 94 % of control | dose: 400.0 mg/kg/injection, schedule: Q04DX003 (ip), vehicle: saline with Tween-80 94 % of control
